Results: paper PMC9246016 (Pharmaceutical Biology, 2022)

Assays:
[1] = molecular target: T1, recombinant human CYP2C8 (RHCYP2C8) (Homo sapiens, UniProt P10632); test: Inhibition of RHCYP2C8 yeast microsomes, probe substrate amodiaquine; settings: for inhibitor intensity classification for CYP2C8: class by IC50, general rules (Testa 2007)
T1 sequence (P10632 1-490): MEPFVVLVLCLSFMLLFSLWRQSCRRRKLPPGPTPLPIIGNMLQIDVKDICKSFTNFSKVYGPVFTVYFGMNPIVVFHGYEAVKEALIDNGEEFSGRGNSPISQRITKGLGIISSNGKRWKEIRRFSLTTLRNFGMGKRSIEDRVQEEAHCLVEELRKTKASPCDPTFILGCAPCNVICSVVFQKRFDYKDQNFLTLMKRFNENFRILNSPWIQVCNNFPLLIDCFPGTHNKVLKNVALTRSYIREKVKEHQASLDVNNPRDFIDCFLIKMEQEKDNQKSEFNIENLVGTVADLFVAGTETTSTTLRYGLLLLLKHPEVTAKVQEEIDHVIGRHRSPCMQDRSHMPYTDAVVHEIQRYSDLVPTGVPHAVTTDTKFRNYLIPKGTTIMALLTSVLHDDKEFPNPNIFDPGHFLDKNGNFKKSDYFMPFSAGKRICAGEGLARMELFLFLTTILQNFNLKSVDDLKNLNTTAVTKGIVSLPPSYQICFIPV
Procedure: (§1) RHCYP2C8 and RHCYP2C9 yeast microsomes were extracted using the glass bead crushing method and differential centrifugation, with grinding 15 times by 0.5 g glass beads and centrifugation at 9,000 g for 20 min at 4 °C. The supernatant was then centrifuged at 100,000 g at 4 °C (BECKMAN COULTER Optima™ L-80 XP Ultracentrifuge) for 1 h, and the precipitation was RHCYP2C8 or RHCYP2C9 yeast microsome. Reconstituted with potassium phosphate buffer (pH 7.4), the microsome solution was collected and stored at −80 °C for subsequent examination. Protein concentrations of microsomes were determined using the Lowry method.
Amodiaquine and diclofenac are typical CYP2C8 and CYP2C9 probe substrates, respectively. […] The 0.4 mL incubation mixtures contained inhibitors (0–500 μmol/L), potassium phosphate buffer (pH 7.4) in common, and RHCYP2C8 (12.4 mg/mL) with amodiaquine or RHCYP2C9 (4.6 mg/mL) with diclofenac. […] The reactions were initiated by the addition of NADPH with pre-incubation 10 min in advance and carried out for 40 min.
(§2) The CYP2C8 sample treatment process was that incubation was terminated by adding 200 μL of methanol. Samples were centrifuged at 12,000 rpm for 10 min, and the supernatant was subjected to HPLC. The CYP2C9 sample treatment process was that each sample (100 μL) was spiked with 10 μL of carbamazepine (30 μg/mL). The mixture was then extracted with 500 μL ethyl acetate by vortexing for 3 min and centrifuged at 12,000 rpm for 10 min. […] The residue was dissolved in 100 μL methanol for HPLC analysis.

[2] = molecular target: recombinant human CYP2C9 (RHCYP2C9) (Homo sapiens, UniProt P11712); test: Inhibition of RHCYP2C9 yeast microsomes, probe substrate diclofenac; settings: for inhibitor intensity classification for CYP2C9: class by IC50, general rules (Testa 2007)
Sequence of recombinant human CYP2C9 (RHCYP2C9) (P11712 whole entry): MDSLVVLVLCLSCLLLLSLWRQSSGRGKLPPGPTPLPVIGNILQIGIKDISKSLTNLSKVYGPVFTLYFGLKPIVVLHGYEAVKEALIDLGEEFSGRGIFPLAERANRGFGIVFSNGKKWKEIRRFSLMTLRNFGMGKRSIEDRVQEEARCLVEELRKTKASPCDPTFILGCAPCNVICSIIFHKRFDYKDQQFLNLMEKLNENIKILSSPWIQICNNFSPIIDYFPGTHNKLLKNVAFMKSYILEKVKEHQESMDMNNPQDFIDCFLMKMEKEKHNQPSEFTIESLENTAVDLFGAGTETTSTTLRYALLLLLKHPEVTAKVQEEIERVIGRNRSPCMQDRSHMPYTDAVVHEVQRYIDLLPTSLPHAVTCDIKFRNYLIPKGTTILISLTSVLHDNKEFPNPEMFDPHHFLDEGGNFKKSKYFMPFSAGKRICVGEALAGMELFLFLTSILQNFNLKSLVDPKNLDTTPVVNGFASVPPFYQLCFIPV
Procedure: as §1
Amodiaquine and diclofenac are typical CYP2C8 and CYP2C9 probe substrates, respectively. […] The reactions were initiated by the addition of NADPH with pre-incubation 10 min in advance and carried out for 40 min.
as §2

[3] = test system: CYP2C8; design: method as in Unger and Frank [2004]; settings: ref Unger and Frank [2004]; read-out: IC50 for CYP2C8 (previous finding); cited from earlier work
[4] = test system: CYP2C9 and CYP3A4; design: method as in He and Edeki [2004]; settings: inhibitory effects appear negligible; ref He and Edeki [2004]; cited from earlier work
[5] = Pharmacokinetics of ROS after 10-day multiple-dose GLT in rats; assay type: in vivo, Sprague-Dawley rats; settings: ROS 10 mg/kg oral; for AUC(0-t) / Cmax / MRT / Tmax / half-life: male, Sprague-Dawley, rat, plasma, po, 10 mg/kg
[6] = Pharmacokinetics of ROS with single-dose GLT in rats; settings: for CL/F / AUC(0-t) / Cmax / MRT / Tmax: ROS 10 mg/kg oral; for AUC(0-t) / Cmax / MRT / Tmax / half-life: male, Sprague-Dawley, rat, plasma, po, 10 mg/kg; for AUC(0-t): AUC0-t; for half-life: t1/2, ROS 10 mg/kg oral; for extension of MRT vs control: ROS 10 mg/kg
[7] = multiple-dose GLT 100 mg/kg for 10 days
[8] = multiple-dose GLT 200 mg/kg for 10 days

## O=c1c(O)c(-c2ccc(O)cc2)oc2cc(O)cc(O)c12 [kaempferol]
[1]
  IC50: 7.67 µM
  inhibitor intensity classification for CYP2C8: moderate (moderate inhibitors are between 1 and 10 μmol/L)
[2]
  IC50: 7.57 µM
  inhibitor intensity classification for CYP2C9: moderate (moderate inhibitors are between 1 and 10 μmol/L)

## COc1cc(-c2oc3cc(O)cc(O)c3c(=O)c2O)ccc1O [isorhamnetin]
[1]
  IC50: 11.9 µM
  inhibitor intensity classification for CYP2C8: weak (weak inhibitors are over 10 μmol/L)
[2]
  IC50: 4.59 µM
  inhibitor intensity classification for CYP2C9: moderate (moderate inhibitors are between 1 and 10 μmol/L)

## O=c1c(O)c(-c2ccc(O)c(O)c2)oc2cc(O)cc(O)c12 [quercetin]
[1]
  inhibitor intensity classification for CYP2C8: moderate (moderate inhibitors are between 1 and 10 μmol/L)
[2]
  inhibitor intensity classification for CYP2C9: weak (weak inhibitors are over 10 μmol/L)
[3]
  IC50: […]

## ginkgolide B
[4]
  concentrations at which effects are pronounced: greater than 100 μmol/L

## CN(CCOc1ccc(CC2SC(=O)NC2=O)cc1)c1ccccn1 (centres unmarked) [ROS, Rosiglitazone]
[5]; control (vehicle 10 days)
  CL/F: 13.92 ± 3.04 mL/h
  AUC(0-t): 140 ± 45.5 µg·h/mL
  Cmax: 38700 ± 9730 ng/mL
  MRT: 3.27 ± 0.65 h
  Tmax: 0.79 ± 0.4 h
  half-life: 2.75 ± 0.7 h
[5]; [7]
  CL/F: 25.54 ± 9.02 mL/h
  AUC(0-t): 84.6 ± 39.9 µg·h/mL
  Cmax: 28500 ± 5560 ng/mL
  MRT: 2.95 ± 1.13 h
  Tmax: 0.54 ± 0.25 h
  half-life: 1.99 ± 0.44 h
[5]; [8]
  CL/F: 30.00 ± 8.52 mL/h
  AUC(0-t): 66.6 ± 15.9 µg·h/mL
  Cmax: 28400 ± 4640 ng/mL
  MRT: 2.13 ± 0.28 h
  Tmax: 0.37 ± 0.13 h
  half-life: 1.68 ± 0.35 h
[6]; control (vehicle), single dose
  CL/F: 16.46 ± 1.91 mL/h
  AUC(0-t): 117 ± 12.2 µg·h/mL
  Cmax: 29100 ± 5980 ng/mL
  MRT: 3.02 ± 0.28 h
  Tmax: 0.9 ± 0.34 h
  half-life: 2.14 ± 0.38 h
[6]; single-dose GLT 100 mg/kg
  CL/F: 14.58 ± 2.12 mL/h
  AUC(0-t): 130 ± 24.3 µg·h/mL
  Cmax: 28800 ± 5860 ng/mL
  MRT: 3.66 ± 0.63 h
  Tmax: 1.01 ± 0.65 h
  half-life: 2.79 ± 0.37 h
  extension of MRT vs control: 21%
[6]; single-dose GLT 200 mg/kg
  CL/F: 13.97 ± 3.43 mL/h
  AUC(0-t): 139 ± 40.6 µg·h/mL
  Cmax: 26000 ± 6990 ng/mL
  MRT: 4.24 ± 1.04 h
  Tmax: 0.8 ± 0.26 h
  half-life: 3.26 ± 1.08 h
  extension of MRT vs control: 40%
